Patent US20110009403A1, “2-MORPHOLINYLPURINES AS INHIBITORS OF PI3K” (S*BIO Pte Ltd., priority 2007, published 2011)

Key:
mTOR = mTOR (Homo sapiens, UniProt P42345); assay: mTOR assay (phosphorylation of 4eBP1, [γ33P]-ATP filter plate); assay type: biochemical; details: 10 μM ATP, 1 hour at room temperature
Experimental: Truncated mTOR kinase and His-tagged 4eBP1 were produced in-house. [γ^33P]-ATP was purchased from Amersham (GE Healthcare). All chemicals, unless otherwise stated, were from Sigma-Aldrich.
Phosphorylation assays were initially performed in a final volume of 20 μL in 384-well polypropylene plate (Greiner). Compounds were typically tested over the range from 100 μM to 0.006 μM, in 8 step dilutions, in duplicate. 10 μL/well of 2× Enzyme-Substrate solution (1.5 μg/mL mTOR, 40 μg/mL 4eBP1 in 1× assay buffer: 10 mM Hepes pH 7.5, 50 mM NaCl and 10 mM MnCl2) were first added to the sample plate containing 1 μL/well of test compound in neat DMSO. The reaction was initiated by adding 10 μL/well of 20 μM ATP solution (final assay concentration 10 μM ATP and 0.4 μCi/well of [γ^33P]-ATP). After 1 hour incubation at room temperature, the reaction was terminated with 40 μL/well of 20 mM EDTA/1 mM ATP solution.
50 μL/well of the stopped reaction mix was then transferred to 384-well MultiScreenHTS-PH filter plate (Millipore) pre-added with 50 μL/well of 1% phosphoric acid. The plate was washed 4 times with 120 μL/well of 0.5% phosphoric acid via vacuum filtration. Finally, 10 μL/well of Optiphase™ SuperMix liquid scintillation cocktail (Perkin Elmer) was added. After minimum 1 hour of incubation, counting was performed in a Wallac MicroBeta TriLux scintillation counter using coincidence counting mode with crosstalk correction.

PI3K p110α/p85 = target: T1, PI3K p110α/p85 (Homo sapiens, UniProt P42336); assay: PI3K assay ([γ33P]ATP, PtdIns/PtdSer coated plates); assay type: biochemical; details: 2 μM ATP, 1 hour at RT; read-out: IC50 (PI3Kα)
T1 construct: made in house
Experimental: Recombinant PI3K p110α/p85 was prepared in-house. Phosphatidylinositol (PtdIns), phosphotidylserine (PtdSer) and all other unspecified chemicals were purchased from Sigma-Aldrich. [γ^33P]ATP and Optiphase scintillant were obtained from Perkin Elmer.
Assays were performed in a final assay volume of 25 μL in 384-well Maxisorp plates (Nunc). Compounds were tested at 8 concentrations in 3-fold serial dilution, generally starting from 10 μM. Maxisorp plates were coated with 20 μL/well of a 1:1 mixture of PtdIns and PtdSer [0.1 mg/mL each dissolved in chloroform:ethanol (3:7)] and left overnight in a fume hood at room temperature (RT) to dry.
The enzyme reaction was created by pipetting 5 μL/well of compound (in 2.5% DMSO), 10 μL/well of enzyme (0.5 μg/mL p110α+1 μg/mL p85), and 10 μL/well of 5 μM ATP with 5 μCi/mL [γ^33P]ATP in assay buffer (final concentrations: 0.2 μg/mL p110α, 2 μM ATP, […] [γ^33P]ATP in 1× assay buffer: 100 mM Tris-HCl pH 7.0, 200 mM NaCl, 8 mM MgCl2). The reaction was incubated for 1 hour at RT and terminated with 30 μL/well of 50 mM EDTA solution. The plate was then washed twice with TBS, dried, and added with 30 μL/well of scintillant before it was counted in a MicroBeta Trilux.

Chain of mTOR (P42345 1382-2549 limits assumed): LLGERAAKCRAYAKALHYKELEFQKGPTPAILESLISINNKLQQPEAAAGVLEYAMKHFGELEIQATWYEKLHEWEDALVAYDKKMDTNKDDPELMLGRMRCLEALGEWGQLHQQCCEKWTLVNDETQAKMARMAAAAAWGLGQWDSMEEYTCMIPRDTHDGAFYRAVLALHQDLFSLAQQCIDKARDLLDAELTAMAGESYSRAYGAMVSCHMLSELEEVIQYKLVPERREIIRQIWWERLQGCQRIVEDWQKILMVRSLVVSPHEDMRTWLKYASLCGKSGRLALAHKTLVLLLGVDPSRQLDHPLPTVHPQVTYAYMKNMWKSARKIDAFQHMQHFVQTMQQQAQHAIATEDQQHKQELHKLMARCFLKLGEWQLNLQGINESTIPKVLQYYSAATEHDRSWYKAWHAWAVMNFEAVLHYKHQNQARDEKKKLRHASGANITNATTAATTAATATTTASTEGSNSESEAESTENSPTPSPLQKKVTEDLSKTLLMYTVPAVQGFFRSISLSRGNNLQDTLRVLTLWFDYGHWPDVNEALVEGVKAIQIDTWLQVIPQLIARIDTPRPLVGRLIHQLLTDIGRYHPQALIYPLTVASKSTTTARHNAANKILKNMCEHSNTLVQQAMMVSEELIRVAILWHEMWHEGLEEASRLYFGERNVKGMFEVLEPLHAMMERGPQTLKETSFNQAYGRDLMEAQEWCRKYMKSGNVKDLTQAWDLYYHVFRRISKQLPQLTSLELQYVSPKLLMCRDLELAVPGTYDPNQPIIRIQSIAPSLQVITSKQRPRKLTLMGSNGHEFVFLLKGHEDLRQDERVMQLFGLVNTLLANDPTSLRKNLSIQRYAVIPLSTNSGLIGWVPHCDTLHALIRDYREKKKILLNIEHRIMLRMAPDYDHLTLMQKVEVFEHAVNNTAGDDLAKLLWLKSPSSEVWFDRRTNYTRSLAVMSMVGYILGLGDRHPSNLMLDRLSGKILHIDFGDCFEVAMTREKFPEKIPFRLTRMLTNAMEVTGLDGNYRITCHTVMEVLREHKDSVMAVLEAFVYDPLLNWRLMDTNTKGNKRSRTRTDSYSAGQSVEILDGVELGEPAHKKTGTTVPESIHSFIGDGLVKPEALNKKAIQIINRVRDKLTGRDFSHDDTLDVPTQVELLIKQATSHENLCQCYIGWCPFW
T1 sequence (P42336 whole entry): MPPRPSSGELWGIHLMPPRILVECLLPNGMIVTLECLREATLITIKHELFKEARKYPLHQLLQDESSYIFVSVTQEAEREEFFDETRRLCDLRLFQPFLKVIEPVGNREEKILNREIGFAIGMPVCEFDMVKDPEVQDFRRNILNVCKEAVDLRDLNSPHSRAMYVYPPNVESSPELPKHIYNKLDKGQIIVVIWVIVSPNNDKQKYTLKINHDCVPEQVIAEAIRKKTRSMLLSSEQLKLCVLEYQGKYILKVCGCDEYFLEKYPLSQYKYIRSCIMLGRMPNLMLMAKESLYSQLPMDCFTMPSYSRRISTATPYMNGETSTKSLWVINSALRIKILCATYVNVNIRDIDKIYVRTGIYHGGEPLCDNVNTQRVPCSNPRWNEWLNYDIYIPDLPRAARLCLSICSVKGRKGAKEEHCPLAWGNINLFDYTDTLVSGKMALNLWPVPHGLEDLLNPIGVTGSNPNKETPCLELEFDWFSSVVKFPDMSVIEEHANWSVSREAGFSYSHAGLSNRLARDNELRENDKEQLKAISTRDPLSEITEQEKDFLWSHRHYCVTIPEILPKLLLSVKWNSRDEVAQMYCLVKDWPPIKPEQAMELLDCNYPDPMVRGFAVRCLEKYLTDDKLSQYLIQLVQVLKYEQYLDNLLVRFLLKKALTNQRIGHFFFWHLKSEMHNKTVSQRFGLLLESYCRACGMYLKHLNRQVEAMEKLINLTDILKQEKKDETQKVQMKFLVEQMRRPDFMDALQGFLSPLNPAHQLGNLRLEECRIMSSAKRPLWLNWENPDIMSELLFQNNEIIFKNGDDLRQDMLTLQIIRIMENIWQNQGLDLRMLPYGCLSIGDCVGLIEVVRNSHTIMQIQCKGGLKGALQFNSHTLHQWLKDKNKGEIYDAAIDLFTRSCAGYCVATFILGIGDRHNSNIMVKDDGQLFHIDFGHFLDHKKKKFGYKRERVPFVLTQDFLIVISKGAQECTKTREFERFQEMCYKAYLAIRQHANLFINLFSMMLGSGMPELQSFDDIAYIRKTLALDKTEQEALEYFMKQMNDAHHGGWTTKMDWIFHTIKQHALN
T1 sequence (P27986 whole entry partner): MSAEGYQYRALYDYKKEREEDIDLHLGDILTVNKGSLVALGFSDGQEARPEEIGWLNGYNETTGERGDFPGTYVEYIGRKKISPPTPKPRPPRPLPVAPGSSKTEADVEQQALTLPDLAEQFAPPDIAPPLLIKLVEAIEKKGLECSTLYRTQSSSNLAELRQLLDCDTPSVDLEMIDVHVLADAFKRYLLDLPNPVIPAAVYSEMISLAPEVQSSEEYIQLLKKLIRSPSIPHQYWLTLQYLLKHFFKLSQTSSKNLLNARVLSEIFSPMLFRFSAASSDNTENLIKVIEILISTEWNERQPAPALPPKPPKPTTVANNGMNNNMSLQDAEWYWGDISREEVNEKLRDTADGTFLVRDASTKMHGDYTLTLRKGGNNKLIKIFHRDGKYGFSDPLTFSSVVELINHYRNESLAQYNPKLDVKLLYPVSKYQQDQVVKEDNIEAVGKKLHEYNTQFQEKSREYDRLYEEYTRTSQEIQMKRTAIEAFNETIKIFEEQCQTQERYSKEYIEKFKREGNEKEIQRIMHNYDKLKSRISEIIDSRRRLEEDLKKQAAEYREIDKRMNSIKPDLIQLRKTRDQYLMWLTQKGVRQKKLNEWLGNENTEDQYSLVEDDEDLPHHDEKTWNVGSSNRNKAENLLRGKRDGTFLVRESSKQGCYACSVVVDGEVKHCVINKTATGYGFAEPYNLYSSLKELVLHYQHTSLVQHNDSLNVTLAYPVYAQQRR

IC50 (mTOR)	IC50 (PI3K p110α/p85)	Compound
1 to 5 µM	< 1 µM	OCc1cccc(-c2nc(N3CCOCC3)nc3c2ncn3Cc2ccccc2)c1 [Compound 1]
< 1 µM	< 1 µM	Oc1cc(F)cc(-c2nc(N3CCOCC3)nc3c2ncn3Cc2ccccc2)c1 [Compound 3]
> 5 µM	> 5 µM	CC(=O)Nc1cccc(-c2nc(N3CCOCC3)nc3c2ncn3Cc2ccccc2)c1 [Compound 4]
1 to 5 µM	> 5 µM	Oc1ccc(-c2nc(N3CCOCC3)nc3c2ncn3Cc2ccccc2)cc1 [Compound 5]
> 5 µM	> 5 µM	c1ccc(Cn2cnc3c(-c4ccc5cc[nH]c5c4)nc(N4CCOCC4)nc32)cc1 [Compound 6]
< 1 µM	< 1 µM	Oc1cccc(-c2nc(N3CCOCC3)nc3c2ncn3Cc2c(F)cccc2F)c1 [Compound 7]
< 1 µM	< 1 µM	N#Cc1cccc(Cn2cnc3c(-c4cccc(O)c4)nc(N4CCOCC4)nc32)c1 [Compound 9]
1 to 5 µM	> 5 µM	COCCn1cnc2c(-c3ccc4cc[nH]c4c3)nc(N3CCOCC3)nc21 [Compound 10, 6-(1H-Indol-6-yl)-9-(2-methoxy-ethyl)-2-morpholin-4-yl-9H-purine]
< 1 µM	< 1 µM	COCCn1cnc2c(-c3cccc(O)c3)nc(N3CCOCC3)nc21 [Compound 11, 3-[9-(2-Methoxy-ethyl)-2-morpholin-4-yl-9H-purin-6-yl]-phenol]
1 to 5 µM	> 5 µM	Oc1cccc(-c2nc(N3CCOCC3)nc3c2ncn3Cc2cccc(OC(F)(F)F)c2)c1 [Compound 12]
1 to 5 µM	< 1 µM	COC(=O)c1ccc(Cn2cnc3c(-c4cccc(O)c4)nc(N4CCOCC4)nc32)cc1 [Compound 13]
< 1 µM	< 1 µM	COc1cc(Cn2cnc3c(-c4cccc(O)c4)nc(N4CCOCC4)nc32)cc(OC)c1 [Compound 14]
< 1 µM	< 1 µM	Oc1cccc(-c2nc(N3CCOCC3)nc3c2ncn3Cc2cccc(F)c2)c1 [Compound 15]
< 1 µM	< 1 µM	COc1cccc(Cn2cnc3c(-c4cccc(O)c4)nc(N4CCOCC4)nc32)c1 [Compound 17]
1 to 5 µM	> 5 µM	COc1cccc(Cn2cnc3c(-c4ccc5cc[nH]c5c4)nc(N4CCOCC4)nc32)c1 [Compound 18]
< 1 µM	< 1 µM	O=[N+]([O-])c1ccc(Cn2cnc3c(-c4cccc(O)c4)nc(N4CCOCC4)nc32)cc1 [Compound 19, 3-[2-Morpholin-4-yl-9-(4-nitro-benzyl)-9H-purin-6-yl]-phenol]
< 1 µM	< 1 µM	Nc1ccc(Cn2cnc3c(-c4cccc(O)c4)nc(N4CCOCC4)nc32)cc1 [Compound 20, 3-[9-(4-Amino-benzyl)-2-morpholin-4-yl-9H-purin-6-yl]-phenol]
< 1 µM	> 5 µM	c1cc2ccc(-c3nc(N4CCOCC4)nc4c3ncn4CC3CC3)cc2[nH]1 [Compound 21]
1 to 5 µM	> 5 µM	C=CCCn1cnc2c(-c3ccc4cc[nH]c4c3)nc(N3CCOCC3)nc21 [Compound 23]
< 1 µM		CCOC(=O)CCn1cnc2c(-c3cccc(O)c3)nc(N3CCOCC3)nc21 [Compound 24]
1 to 5 µM		CCOC(=O)CCn1cnc2c(-c3ccc4cc[nH]c4c3)nc(N3CCOCC3)nc21 [Compound 25]
1 to 5 µM	< 1 µM	O=C(CCN1CCCCC1)Nc1ccc(Cn2cnc3c(-c4cccc(O)c4)nc(N4CCOCC4)nc32)cc1 [Compound 26, N-{4-[6-(3-Hydroxy-phenyl)-2-morpholin-4-yl-purin-9-ylmethyl]-phenyl}-3-piperidin-1-yl-propionamide]
1 to 5 µM	1 to 5 µM	c1ccc(Cn2cnc3c(-c4ccc5nc[nH]c5c4)nc(N4CCOCC4)nc32)cc1 [Compound 28]
1 to 5 µM	> 5 µM	Nc1cccc(-c2nc(N3CCOCC3)nc3c2ncn3Cc2ccccc2)c1 [Compound 29]
1 to 5 µM	1 to 5 µM	Oc1cccc(-c2nc(N3CCOCC3)nc3c2ncn3Cc2ccc(C(F)(F)F)cc2)c1 [Compound 30]
< 1 µM	< 1 µM	O=[N+]([O-])c1cccc(Cn2cnc3c(-c4cccc(O)c4)nc(N4CCOCC4)nc32)c1 [Compound 31]

IC50 (mTOR)	IC50 (PI3K p110α/p85)	Compound
1 to 5 µM	< 1 µM	CC(=O)Nc1ccc(Cn2cnc3c(-c4cccc(O)c4)nc(N4CCOCC4)nc32)cc1 [Compound 32]
> 5 µM	< 1 µM	CC(=O)Nc1ccc(Cn2cnc3c(-c4cccc(OC(C)=O)c4)nc(N4CCOCC4)nc32)cc1 [Compound 33]
1 to 5 µM	< 1 µM	CCNc1ccc(Cn2cnc3c(-c4cccc(O)c4)nc(N4CCOCC4)nc32)cc1 [Compound 34]
< 1 µM	< 1 µM	Oc1cccc(-c2nc(N3CCOCC3)nc3c2ncn3Cc2cc(F)cc(F)c2)c1 [Compound 37]
1 to 5 µM	> 5 µM	Nc1ccc(-c2nc(N3CCOCC3)nc3c2ncn3Cc2ccccc2)cc1N [Compound 38]
1 to 5 µM	1 to 5 µM	c1ccc(Cn2cnc3c(-c4ccc5nn[nH]c5c4)nc(N4CCOCC4)nc32)cc1 [Compound 39]
> 5 µM	> 5 µM	O=c1[nH]c2ccc(-c3nc(N4CCOCC4)nc4c3ncn4Cc3ccccc3)cc2[nH]1 [Compound 40]
< 1 µM	< 1 µM	Nc1cccc(Cn2cnc3c(-c4cccc(O)c4)nc(N4CCOCC4)nc32)c1 [Compound 41]
1 to 5 µM	< 1 µM	CS(=O)(=O)Nc1ccc(Cn2cnc3c(-c4cccc(O)c4)nc(N4CCOCC4)nc32)cc1 [Compound 42]
> 5 µM	> 5 µM	CS(=O)(=O)Nc1cccc(-c2nc(N3CCOCC3)nc3c2ncn3Cc2ccccc2)c1 [Compound 43]
< 1 µM	< 1 µM	Oc1cccc(-c2nc(N3CCOCC3)nc3c2ncn3CCOc2ccccc2)c1 [Compound 44]
< 1 µM		Oc1cccc(-c2nc(N3CCOCC3)nc3c2ncn3C/C=C/c2ccccc2)c1 [Compound 45]
< 1 µM		Oc1cccc(-c2nc(N3CCOCC3)nc3c2ncn3Cc2ccc3ccccc3c2)c1 [Compound 46]
1 to 5 µM	> 5 µM	Fc1cccc(Cn2cnc3c(-c4ccc5[nH]ccc5c4)nc(N4CCOCC4)nc32)c1 [Compound 47]
1 to 5 µM		Oc1cccc(-c2nc(N3CCOCC3)nc3[nH]cnc23)c1 [Compound 48]
1 to 5 µM	< 1 µM	CC(=O)Nc1cccc(Cn2cnc3c(-c4cccc(O)c4)nc(N4CCOCC4)nc32)c1 [Compound 49]
< 1 µM	< 1 µM	C#CCn1cnc2c(-c3cccc(O)c3)nc(N3CCOCC3)nc21 [Compound 53]
> 5 µM	1 to 5 µM	CS(=O)(=O)Nc1cccc(Cn2cnc3c(-c4cccc(O)c4)nc(N4CCOCC4)nc32)c1 [Compound 55]
> 5 µM	> 5 µM	CC(=O)Nc1cccc(-c2nc(N3CCOCC3)nc3c2ncn3-c2ccccc2)c1 [Compound 56]
< 1 µM	< 1 µM	Oc1cccc(-c2nc(N3CCOCC3)nc3c2ncn3C2CCCCO2)c1 (stereo not shown) [Compound 57]
1 to 5 µM	> 5 µM	c1ccc(Cn2cnc3c(-c4ccc5[nH]ccc5c4)nc(N4CCOCC4)nc32)cc1 [Compound 58]
< 1 µM		CC(C)(C)OC(=O)N1CCC(n2cnc3c(-c4cccc(O)c4)nc(N4CCOCC4)nc32)CC1 [Compound 71]
< 1 µM		CCOC(=O)Cn1cnc2c(-c3cccc(O)c3)nc(N3CCOCC3)nc21 [Compound 74, ethyl-2-(6-(3-hydroxyphenyl)-2-morpholino-9H-purin-9-yl)acetate]
< 1 µM		Oc1cccc(-c2nc(N3CCOCC3)nc3c2ncn3C2CCNCC2)c1 [Compound 85]
	< 1 µM	CC(C)(C)OC(=O)N1CCC(n2cnc3c(-c4cccc(O)c4)nc(N4CCOCC4)nc32)CC1 [Compound 86]
< 1 µM		CC(C)C(C)n1cnc2c(-c3cccc(O)c3)nc(N3CCOCC3)nc21 (stereo not shown) [Compound 100]
